From patent publication US12227501B2, “3-amino-2-[2-(acylamino)pyridin-4-yl]-1,5,6,7-tetrahydro-4h-pyrrolo[3,2-c]pyridin-4-one as CSNK1 inhibitors” (Bayer Aktiengesellschaft, priority 2019, dated 2025)
pIC50: −log10 of the molar value. Like-named read-outs stand apart in the source and are kept apart here.

Legend:
Format in all cases: biochemical
human CSNK1A1 [1] = biological target: T1, human CSNK1A1 (Homo sapiens (Human), UniProt P48729); assay: CSNK1A1 Assay 2 (ADP-Glo, 1 μM ATP); settings: substrate biotin-Ahx-KRRRAL-pS-VASLPGL, read-out: CSNK1A1 Assay 2 IC50 [mol/l] (median)
T1 sequence (P48729 whole entry): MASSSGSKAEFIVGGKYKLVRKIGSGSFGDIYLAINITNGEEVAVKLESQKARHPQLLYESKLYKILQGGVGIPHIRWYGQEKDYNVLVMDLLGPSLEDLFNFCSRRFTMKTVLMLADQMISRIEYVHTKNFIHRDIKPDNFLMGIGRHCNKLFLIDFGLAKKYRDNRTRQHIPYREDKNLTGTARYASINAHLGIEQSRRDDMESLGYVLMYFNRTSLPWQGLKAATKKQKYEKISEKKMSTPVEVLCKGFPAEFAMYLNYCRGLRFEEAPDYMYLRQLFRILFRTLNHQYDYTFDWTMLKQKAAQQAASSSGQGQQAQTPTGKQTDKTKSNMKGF
Description: CSNK1A1-inhibitory activity of compounds of the present invention in presence of 1 μM adenosine-tri-phosphate (ATP) was quantified employing the CSNK1A1 assay as described in the following paragraphs. In essence, the enzyme activity is measured by quantification of the adenosine-di-phosphate (ADP), which is generated as a co-product of the enzyme reaction, via the “ADP-Glo™ Kinase Assay” kit from the company Promega. This detection system works as follows: In a first step the ATP not consumed in the kinase reaction is quantitatively converted to cAMP employing an adenylate cyclase (“ADP-Glo-reagent”), then the adenylate cyclase is stopped and the ADP generated in the kinase reaction converted to ATP which generates in a luciferase-based reaction a glow-luminescence signal (“Kinase Detection Reagent”). Recombinant fusion protein of N-terminal Glutathion-S-Transferase (GST) and full-length human CSNK1A1, expressed by baculovirus infected insect cells and purified via Glutathion affinity chromatography, was purchased from Life Technologies (product no. PV4174) and used as enzyme. As substrate for the kinase reaction the biotinylated peptide biotin-Ahx-KRRRAL-pS-VASLPGL (C-terminus in amide form) was used which can be purchased e.g. from the company Biosyntan (Berlin-Buch, Germany).
For the assay 50 nl of a 100 fold concentrated solution of the test compound in DMSO was pipetted into a white 1536-well microtiter plate (Greiner Bio-One, Frickenhausen, Germany), 2 μL of a solution of CSNK1A1 in aqueous assay buffer [50 mM HEPES pH 7.5, 10% (v/v) glycerol, 10 mM MgCl2, 50 mM NaCl, 1 mM dithiothreitol, 0.01% (w/v) bovine serum albumin, 0.01% (v/v) Triton X-100] were added and the mixture was incubated for 15 min at 22° C. to allow pre-binding of the test compounds to the enzyme before the start of the kinase reaction. […] The concentration of CSNK1A1 was adjusted depending of the activity of the enzyme lot and was chosen appropriate to have the assay in the linear range, a typical concentrations are about 0.0375 ng/μL. The reaction was stopped by the addition of 2.5 μL of “ADP-Glo-reagent” (1:1.5 fold diluted with water) and the resulting mixture was incubated at 22° C. for 1 h to convert the ATP not consumed in the kinase reaction completely […]. Subsequently 2.5 μL of the “kinase detection reagent” (1.2 fold more concentrated than recommended by the producer) were added, the resulting mixture was incubated at 22° C. for 1 h and then the luminescence measured with a suitable measurement instrument (e.g. Viewlux™ from Perkin-Elmer). The amount of emitted light was taken as a measure for the amount of ADP generated and thereby for the activity of the CSNK1A1.

human CSNK1D = human CSNK1D (Homo sapiens (Human), UniProt P48730); assay: CSNK1D Assay (ADP-Glo, 1 μM ATP); settings: read-out: CSNK1D IC50 [mol/l] (median)
human CSNK1D, sequence (P48730 whole entry): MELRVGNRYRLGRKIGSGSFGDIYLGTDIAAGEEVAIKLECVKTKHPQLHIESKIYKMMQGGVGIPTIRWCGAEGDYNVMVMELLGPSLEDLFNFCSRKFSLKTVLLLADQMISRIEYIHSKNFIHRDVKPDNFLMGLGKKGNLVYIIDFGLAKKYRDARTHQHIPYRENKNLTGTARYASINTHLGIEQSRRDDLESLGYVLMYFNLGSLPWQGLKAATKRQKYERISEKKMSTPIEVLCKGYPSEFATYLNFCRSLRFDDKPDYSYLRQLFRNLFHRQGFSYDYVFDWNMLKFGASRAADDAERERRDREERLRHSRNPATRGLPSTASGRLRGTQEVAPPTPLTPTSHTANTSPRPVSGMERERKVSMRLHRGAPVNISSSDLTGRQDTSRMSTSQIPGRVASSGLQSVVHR
Description: CSNK1 D-inhibitory activity of compounds of the present invention in presence of 1 μM adenosine-tri-phosphate (ATP) was quantified employing the CSNK1D assay as described in the following paragraphs. In essence, the enzyme activity is measured by quantification of the adenosine-di-phosphate (ADP), which is generated as a co-product of the enzyme reaction, via the “ADP-Glo™ Kinase Assay” kit from the company Promega. This detection system works as follows: In a first step the ATP not consumed in the kinase reaction is quantitatively converted to cAMP employing an adenylate cyclase (“ADP-Glo-reagent”), then the adenylate cyclase is stopped and the ADP generated in the kinase reaction converted to ATP which generates in a luciferase-based reaction a glow-luminescence signal (“Kinase Detection Reagent”). Recombinant fusion protein of N-terminal Glutathion-S-Transferase (GST) and full-length human CSNK1D, expressed by baculovirus infected insect cells and purified via Glutathion affinity chromatography, was purchased from Life Technologies (product no. PV3665) and used as enzyme. As substrate for the kinase reaction the biotinylated peptide Btn-Ahx-[…] (C-terminus in amide form) was used which can be purchased e.g. from the company Biosyntan (Berlin-Buch, Germany).
For the assay 50 nl of a 100 fold concentrated solution of the test compound in DMSO was pipetted into a white 1536-well microtiter plate (Greiner Bio-One, Frickenhausen, Germany), 2 μL of a solution of CSNK1D in aqueous assay buffer [50 mM HEPES pH 7.5, 10% (v/v) glycerol, 10 mM MgCl2, 50 mM NaCl, 1 mM dithiothreitol, 0.01% (w/v) bovine serum albumin, 0.01% (v/v) Triton X-100] were added and the mixture was incubated for 15 min at 22° C. to allow pre-binding of the test compounds to the enzyme before the start of the kinase reaction. […] The concentration of CSNK1 D was adjusted depending of the activity of the enzyme lot and was chosen appropriate to have the assay in the linear range, a typical concentration is about 0.5 ng/μL. The reaction was stopped by the addition of 2.5 μL of “ADP-Glo-reagent” (1:1.5 fold diluted with water) and the resulting mixture was incubated at 22° C. for 1 h to convert the ATP not consumed in the kinase reaction completely […]. Subsequently 2.5 μL of the “kinase detection reagent” (1.2 fold more concentrated than recommended by the producer) were added, the resulting mixture was incubated at 22° C. for 1 h and then the luminescence measured with a suitable measurement instrument (e.g. Viewlux™ from Perkin-Elmer). The amount of emitted light was taken as a measure for the amount of ADP generated and thereby for the activity of the CSNK1D.

[2] = biological target: wild-type Epidermal Growth Factor Receptor (EGFR) (Homo sapiens (Human), UniProt P00533); assay: WT-EGFR Kinase Assay (TR-FRET, 2 mM ATP)
wild-type Epidermal Growth Factor Receptor (EGFR), sequence (P00533 669-1210): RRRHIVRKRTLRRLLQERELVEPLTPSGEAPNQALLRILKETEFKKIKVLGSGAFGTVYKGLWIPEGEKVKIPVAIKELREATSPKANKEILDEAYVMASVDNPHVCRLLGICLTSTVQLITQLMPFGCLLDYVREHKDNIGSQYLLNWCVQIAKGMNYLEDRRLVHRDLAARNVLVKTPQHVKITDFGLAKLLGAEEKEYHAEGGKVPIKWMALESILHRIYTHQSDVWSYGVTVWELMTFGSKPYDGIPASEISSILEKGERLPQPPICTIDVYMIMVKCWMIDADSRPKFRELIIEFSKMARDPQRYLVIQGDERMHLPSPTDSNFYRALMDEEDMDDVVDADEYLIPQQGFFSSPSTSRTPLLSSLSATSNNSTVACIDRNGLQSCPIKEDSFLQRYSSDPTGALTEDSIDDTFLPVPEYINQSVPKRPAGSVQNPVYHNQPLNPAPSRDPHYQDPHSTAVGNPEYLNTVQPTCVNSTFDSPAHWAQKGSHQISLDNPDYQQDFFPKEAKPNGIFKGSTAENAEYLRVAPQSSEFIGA

human CSNK1A1 [3] = biological target: T1, human CSNK1A1; assay: CSNK1A1 High ATP Assay (ADP-Glo, 1 mM ATP); settings: read-out: CSNK1A1 high ATP assay IC50 [mol/l] (median)
Description: CSNK1A1-inhibitory activity of compounds of the present invention in presence of 1 mM adenosine-tri-phosphate (ATP) was quantified employing the CSNK1A1-high-ATP-assay as described in the following paragraphs. In essence, the enzyme activity is measured by quantification of the adenosine-di-phosphate (ADP), which is generated as a co-product of the enzyme reaction, via the “ADP-Glo™ Kinase Assay” kit from the company Promega. This detection system works as follows: In a first step the ATP not consumed in the kinase reaction is quantitatively converted to cAMP employing an adenylate cyclase (“ADP-Glo-reagent”), then the adenylate cyclase is stopped and the ADP generated in the kinase reaction converted to ATP which generates in a luciferase-based reaction a glow-luminescence signal (“Kinase Detection Reagent”).
Recombinant fusion protein of N-terminal Glutathion-S-Transferase (GST) and full-length human CSNK1A1, expressed by baculovirus infected insect cells and purified via Glutathion affinity chromatography, was purchased from Life Technologies (product no. PV4174) and used as enzyme. As substrate for the kinase reaction the biotinylated peptide biotin-Ahx-KRRRAL-pS-VASLPGL (C-terminus in amide form) was used which can be purchased e.g. from the company Biosyntan (Berlin-Buch, Germany).
For the assay 50 nl of a 100 fold concentrated solution of the test compound in DMSO was pipetted into a white low volume 384-well microtiter plate (Greiner Bio-One, Frickenhausen, Germany), 2 μL of a solution of CSNK1A1 in aqueous assay buffer [50 mM HEPES pH 7.5, 10% (v/v) glycerol, 10 mM MgCl2, 50 mM NaCl, 1 mM dithiothreitol, 0.01% (w/v) bovine serum albumin, 0.01% (v/v) Triton X-100] were added and the mixture was incubated for 15 min at 22° C. to allow pre-binding of the test compounds to the enzyme before the start of the kinase reaction. […] The concentration of CSNK1A1 was adjusted depending of the activity of the enzyme lot and was chosen appropriate to have the assay in the linear range, a typical concentration is about 0.4 ng/μL. The reaction was stopped by the addition of 2.5 μL of “ADP-Glo-reagent” (1:1.5 fold diluted with water) and the resulting mixture was incubated at 22° C. for 1 h to convert the ATP not consumed in the kinase reaction completely […]. Subsequently 2.5 μL of the “kinase detection reagent” (1.2 fold more concentrated than recommended by the producer) were added, the resulting mixture was incubated at 22° C. for 1 h and then the luminescence measured with a suitable measurement instrument (e.g. Viewlux™ from Perkin-Elmer). The amount of emitted light was taken as a measure for the amount of ADP generated and thereby for the activity of the CSNK1A1.

[4] = EGFR Wildtyp- 2 mM ATP IC50 [mol/l] (median)
[5] = read-out: EGFR Wildtyp- 2 mM ATP IC50 [mol/l] (median)

| Compound | pIC50 (human CSNK1A1 [1]) | pIC50 (human CSNK1D) | pIC50 [2, 4] | pIC50 (human CSNK1A1 [3]) | pIC50 [2, 5] |
| --- | --- | --- | --- | --- | --- |
| CC1Cc2[nH]c(-c3ccnc(NC(=O)Cc4ccc(F)cc4)c3)c(Nc3ccccc3)c2C(=O)N1C (single isomer, unassigned; (-)) [Example 90, (−)-N-{4-[3-anilino-5,6-dimethyl-4-oxo-4,5,6,7-tetrahydro-1H-pyrrolo[3,2-c]pyridin-2-yl]pyridin-2-yl}-2-(4-fluorophenyl)acetamide] | 8.84 | 8.42 | 6.25 | 7.20 | – |
| CN1CCc2[nH]c(-c3ccnc(NC(=O)C(CC(F)F)c4ccc(F)cc4)c3)c(Nc3ccccc3)c2C1=O (racemic) [Example 61, N-[4-(3-anilino-5-methyl-4-oxo-4,5,6,7-tetrahydro-1H-pyrrolo[3,2-c]pyridin-2-yl)pyridin-2-yl]-4,4-difluoro-2-(4-fluorophenyl)butanamide] | 8.29 | 8.11 | 5.10 | 7.66 | – |
| CC(C(=O)Nc1cc(-c2[nH]c3c(c2Nc2ccccc2)C(=O)N(C)CC3)ccn1)c1ccc(Cl)cc1 (single isomer, unassigned; (+)) [Example 81, (+)-N-[4-(3-anilino-5-methyl-4-oxo-4,5,6,7-tetrahydro-1H-pyrrolo[3,2-c]pyridin-2-yl)pyridin-2-yl]-2-(4-chlorophenyl)propanamide] | 8.36 | 8.07 | – | 7.15 | < 4.70 |
| Cc1ccccc1Nc1c(-c2ccnc(NC(=O)C(C)c3ccc(F)cc3)c2)[nH]c2c1C(=O)NC(C)(C)C2 (single isomer, unassigned; enantiomer 2) [Example 134, N-{4-[6,6-dimethyl-3-(2-methylanilino)-4-oxo-4,5,6,7-tetrahydro-1H-pyrrolo[3,2-c]pyridin-2-yl]pyridin-2-yl}-2-(4-fluorophenyl)propanamide (Enantiomer 2)] | 7.72 | 7.34 | < 4.70 | 6.52 | – |
| CN1CCc2[nH]c(-c3ccnc(NC(=O)C(CO)c4ccc(F)cc4)c3)c(Nc3ccccc3)c2C1=O (stereo not shown) [Example 17, N-[4-(3-anilino-5-methyl-4-oxo-4,5,6,7-tetrahydro-1H-pyrrolo[3,2-c]pyridin-2-yl)pyridin-2-yl]-2-(4-fluorophenyl)-3-hydroxypropanamide] | 7.96 | 7.41 | 4.84 | 7.18 | < 4.70 |
| CC1Cc2[nH]c(-c3ccnc(NC(=O)Cc4ccc(F)cc4)c3)c(Nc3ccccc3F)c2C(=O)N1C (racemic) [Example 100, N-{4-[3-(2-fluoroanilino)-5,6-dimethyl-4-oxo-4,5,6,7-tetrahydro-1H-pyrrolo[3,2-c]pyridin-2-yl]pyridin-2-yl}-2-(4-fluorophenyl)acetamide] | 8.40 | 7.81 | 5.42 | 6.60 | – |
| CN1CCc2[nH]c(-c3ccnc(NC(=O)C(CCN4CCOCC4)c4ccccc4)c3)c(Nc3ccccc3)c2C1=O (stereo not shown) [Example 30, N-[4-(3-anilino-5-methyl-4-oxo-4,5,6,7-tetrahydro-1H-pyrrolo[3,2-c]pyridin-2-yl)pyridin-2-yl]-4-(morpholin-4-yl)-2-phenylbutanamide] | 8.10 | 7.59 | – | 6.31 | < 4.70 |
| CN1CCc2[nH]c(-c3ccnc(NC(=O)Cc4ccncc4)c3)c(Nc3ccccc3)c2C1=O [Example 64, N-[4-(3-anilino-5-methyl-4-oxo-4,5,6,7-tetrahydro-1H-pyrrolo[3,2-c]pyridin-2-yl)pyridin-2-yl]-2-(pyridin-4-yl)acetamide] | 8.58 | 8.26 | – | 7.51 | 5.92 |
| CC1(C)Cc2[nH]c(-c3ccnc(NC(=O)C(CC(F)F)c4ccc(F)cc4)c3)c(Nc3cccc(F)c3)c2C(=O)N1 (single isomer, unassigned; enantiomer 2) [Example 121, 4,4-difluoro-N-{4-[3-(3-fluoroanilino)-6,6-dimethyl-4-oxo-4,5,6,7-tetrahydro-1H-pyrrolo[3,2-c]pyridin-2-yl]pyridin-2-yl}-2-(4-fluorophenyl)butanamide (Enantiomer 2)] | 7.15 | 7.20 | – | 4.99 | < 4.70 |
